Test results from PubChem BioAssay AID248 (DTP/NCI, 2004).
Inconclusive results and toxic doses are left out. Cut-off read from the data, not from the text of the source: active = T/C of 150% or more; inactive = T/C below 125%.

Tested on: L1210 leukemia ip in BDF1 mice, survival T/C
Test: NCI In Vivo Anticancer Drug Screen. Data for tumor model L1210 Leukemia (intraperitoneal) in B6D2F1 (BDF1) mice
Conditions: endpoint: mean survival time, higher = longer survival
Summary of the method: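 Mice bearing the transplanted tumor received compound or vehicle. Survival of the treated group was divided by that of the vehicle-treated control group to give the ratio.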

[1] = dose: 6.25 mg/kg/injection, schedule: Q01DX009 (ip), vehicle: saline with Tween-80
[2] = dose: 12.5 mg/kg/injection, schedule: Q01DX009 (ip), vehicle: saline with Tween-80
[3] = dose: 25.0 mg/kg/injection, schedule: Q01DX009 (ip), vehicle: saline with Tween-80
[4] = dose: 50.0 mg/kg/injection, schedule: Q01DX009 (ip), vehicle: saline with Tween-80
[5] = dose: 100.0 mg/kg/injection, schedule: Q01DX001 (ip), vehicle: Klucel (hydroxypropylcellulose) (HPC)
[6] = dose: 200.0 mg/kg/injection, schedule: Q01DX001 (ip), vehicle: Klucel (hydroxypropylcellulose) (HPC)
[7] = dose: 50.0 mg/kg/injection, schedule: Q04DX003 (ip), vehicle: Klucel (hydroxypropylcellulose) (HPC)
[8] = dose: 100.0 mg/kg/injection, schedule: Q04DX003 (ip), vehicle: Klucel (hydroxypropylcellulose) (HPC)
[9] = dose: 100.0 mg/kg/injection, schedule: Q01DX009 (ip), vehicle: saline with Tween-80
[10] = dose: 100.0 mg/kg/injection, schedule: Q04DX003 (ip), vehicle: saline with Tween-80
[11] = dose: 200.0 mg/kg/injection, schedule: Q04DX003 (ip), vehicle: saline with Tween-80
[12] = dose: 400.0 mg/kg/injection, schedule: Q04DX003 (ip), vehicle: saline with Tween-80
[13] = dose: 100.0 mg/kg/injection, schedule: Q01DX001 (ip), vehicle: carboxymethylcellulose (CMC)
[14] = dose: 200.0 mg/kg/injection, schedule: Q01DX001 (ip), vehicle: carboxymethylcellulose (CMC)
[15] = dose: 400.0 mg/kg/injection, schedule: Q01DX001 (ip), vehicle: carboxymethylcellulose (CMC)
[16] = dose: 200.0 mg/kg/injection, schedule: Q04DX003 (ip), vehicle: Klucel (hydroxypropylcellulose) (HPC)
[17] = dose: 100.0 mg/kg/injection, schedule: Q01DX009 (ip), vehicle: Klucel (hydroxypropylcellulose) (HPC)
[18] = dose: 400.0 mg/kg/injection, schedule: Q04DX003 (ip), vehicle: Klucel (hydroxypropylcellulose) (HPC)

Measured: T/C

COC(=O)C(F)C(Br)C(=O)OC (stereo not drawn)
inactive: dose: 3.12 mg/kg/injection, schedule: Q01DX009 (ip), vehicle: saline with Tween-80 114 % of control | [1] 101 % of control | [2] 103 % of control | [3] 97 % of control | [4] 101 % of control

N#CCCCCC(=O)c1ccc(O)cc1O
inactive: dose: 50.0 mg/kg/injection, schedule: Q01DX001 (ip), vehicle: Klucel (hydroxypropylcellulose) (HPC) 97 % of control | [5] 105 % of control | [6] 101 % of control

CC(C)C(C#N)(CCCCN1CCOCC1)c1cccc2ccccc12 (stereo not drawn)
inactive: dose: 25.0 mg/kg/injection, schedule: Q04DX003 (ip), vehicle: Klucel (hydroxypropylcellulose) (HPC) 93 % of control | [7] 103 % of control | [8] 92 % of control

O=C(Nc1ccc([N+](=O)[O-])cc1Cl)N(CCO)C1CCCCC1
inactive: [9] 96 % of control | [10] 102 % of control | dose: 200.0 mg/kg/injection, schedule: Q01DX009 (ip), vehicle: saline with Tween-80 106 % of control | [11] 101 % of control | dose: 400.0 mg/kg/injection, schedule: Q01DX009 (ip), vehicle: saline with Tween-80 116 % of control | [12] 90 % of control

S=c1c2ccccc2sn1-c1ccccc1
inactive: [13] 92 % of control | [14] 94 % of control | [15] 87 % of control

N#CCc1ccc(Cl)cc1Cl
inactive: dose: 12.5 mg/kg/injection, schedule: Q04DX002 (ip), vehicle: Klucel (hydroxypropylcellulose) (HPC) 97 % of control | dose: 25.0 mg/kg/injection, schedule: Q04DX002 (ip), vehicle: Klucel (hydroxypropylcellulose) (HPC) 91 % of control | dose: 50.0 mg/kg/injection, schedule: Q04DX002 (ip), vehicle: Klucel (hydroxypropylcellulose) (HPC) 87 % of control

O=C(Nc1ccc(C2=NCCN2)cc1)c1c(F)c(F)c(C(=O)Nc2ccc(C3=NCCN3)cc2)c(F)c1F
inactive: dose: 1.87 mg/kg/injection, schedule: Q01DX015 (ip), vehicle: methylcellulose (MC) 103 % of control | dose: 3.75 mg/kg/injection, schedule: Q01DX015 (ip), vehicle: methylcellulose (MC) 101 % of control | dose: 7.5 mg/kg/injection, schedule: Q01DX015 (ip), vehicle: methylcellulose (MC) 121 % of control | dose: 37.0 mg/kg/injection, schedule: Q01DX015 (ip), vehicle: methylcellulose (MC) 95 % of control

CCOC(=O)C1(C(=O)OCC)CCC(O)N1C(=O)c1ccccc1[N+](=O)[O-] (stereo not drawn)
inactive: [7] 97 % of control | [8] 91 % of control | [16] 91 % of control

CCOC(=O)C(C)(C)C(=O)C(C)C
inactive: dose: 100.0 mg/kg/injection, schedule: Q04DX002 (ip), vehicle: Klucel (hydroxypropylcellulose) (HPC) 100 % of control | dose: 200.0 mg/kg/injection, schedule: Q04DX002 (ip), vehicle: Klucel (hydroxypropylcellulose) (HPC) 95 % of control | dose: 400.0 mg/kg/injection, schedule: Q04DX002 (ip), vehicle: Klucel (hydroxypropylcellulose) (HPC) 103 % of control

COc1ccc(C2(OC)Oc3ccccc3C(=O)C2(O)O)cc1 (stereo not drawn)
inactive: dose: 50.0 mg/kg/injection, schedule: Q01DX001 (ip), vehicle: saline 101 % of control | dose: 100.0 mg/kg/injection, schedule: Q01DX001 (ip), vehicle: saline 104 % of control | dose: 200.0 mg/kg/injection, schedule: Q01DX001 (ip), vehicle: saline 101 % of control | dose: 400.0 mg/kg/injection, schedule: Q01DX001 (ip), vehicle: saline 104 % of control

O=C(Nc1ccccc1[N+](=O)[O-])OCc1ccc([N+](=O)[O-])cc1
inactive: [10] 92 % of control | [11] 105 % of control | [12] 105 % of control

CCCCN(CCC#N)C(N)=O
inactive: dose: 100.0 mg/kg/injection, schedule: Q01DX Z (ip), vehicle: methylcellulose (MC) 100 % of control

Nc1ccc(OCc2ccccc2)cc1
inactive: [4] 96 % of control | dose: 50.0 mg/kg/injection, schedule: Q04DX003 (ip), vehicle: saline with Tween-80 100 % of control | [9] 87 % of control | [10] 103 % of control | [11] 109 % of control

Cc1cc(C)c(CN)cc1C
inactive: dose: 5.0 mg/kg/injection, schedule: Q04DX003 (ip), vehicle: saline with Tween-80 95 % of control | dose: 10.0 mg/kg/injection, schedule: Q04DX003 (ip), vehicle: saline with Tween-80 95 % of control | dose: 20.0 mg/kg/injection, schedule: Q04DX003 (ip), vehicle: saline with Tween-80 95 % of control

CCCCCC(=O)Oc1c(C(C)CC)cc([N+](=O)[O-])cc1[N+](=O)[O-] (stereo not drawn)
inactive: [1] 111 % of control | [2] 88 % of control | [3] 90 % of control | dose: 25.0 mg/kg/injection, schedule: Q04DX002 (ip), vehicle: saline with Tween-80 89 % of control

CCOP(=O)(OCC)C(=O)N(CC)CC
inactive: [17] 101 % of control | dose: 200.0 mg/kg/injection, schedule: Q01DX009 (ip), vehicle: Klucel (hydroxypropylcellulose) (HPC) 90 % of control | dose: 400.0 mg/kg/injection, schedule: Q01DX009 (ip), vehicle: Klucel (hydroxypropylcellulose) (HPC) 91 % of control

C[n+]1c(-c2ccc(Cl)c(Cl)c2)c2cc([N+](=O)[O-])ccc2c2ccccc21
inactive: dose: 100.0 mg/kg/injection, schedule: Q04DX003 (ip), vehicle: saline 95 % of control | dose: 200.0 mg/kg/injection, schedule: Q04DX003 (ip), vehicle: saline 93 % of control | dose: 400.0 mg/kg/injection, schedule: Q04DX003 (ip), vehicle: saline 97 % of control

COC(=O)C(CC/C(=N\Nc1ccc([N+](=O)[O-])cc1[N+](=O)[O-])c1ccccc1)C(=O)OC
inactive: dose: 25.0 mg/kg/injection, schedule: Q01DX001 (ip), vehicle: saline with Tween-80 95 % of control | dose: 50.0 mg/kg/injection, schedule: Q01DX001 (ip), vehicle: saline with Tween-80 88 % of control | dose: 100.0 mg/kg/injection, schedule: Q01DX001 (ip), vehicle: saline with Tween-80 91 % of control

CCC(CO)Nc1nc2c(Cl)cc(Cl)cc2c2ccccc12 (stereo not drawn)
inactive: [8] 100 % of control | [16] 100 % of control | [18] 90 % of control

Cc1ccc(NC(=O)Nc2c(C)n(C)n(-c3ccccc3)c2=O)c([N+](=O)[O-])c1
inactive: [8] 94 % of control | [16] 91 % of control | [18] 91 % of control

Nc1ccc(C(=O)/C=C/c2ccccn2)cc1
inactive: dose: 50.0 mg/kg/injection, schedule: Q01DX001 (ip), vehicle: carboxymethylcellulose (CMC) 97 % of control | [13] 103 % of control | [14] 105 % of control | [15] 103 % of control

CCOC(=O)c1[nH]c(C)c(CCC(=O)OC)c1C
inactive: dose: 50.0 mg/kg/injection, schedule: Q01DX009 (ip), vehicle: Klucel (hydroxypropylcellulose) (HPC) 103 % of control | [5] 95 % of control | [17] 107 % of control | [6] 93 % of control | dose: 300.0 mg/kg/injection, schedule: Q01DX009 (ip), vehicle: Klucel (hydroxypropylcellulose) (HPC) 100 % of control | dose: 400.0 mg/kg/injection, schedule: Q01DX001 (ip), vehicle: Klucel (hydroxypropylcellulose) (HPC) 95 % of control
